Source: patent US11976072B2, “Diacylglycerol kinase modulating compounds” (priority 2021, dated 2024)
Like-named read-outs stand apart in the source and are kept apart here.

Key:
human DGKα = human DGKα (Homo sapiens, UniProt P23743); assay: DGKα Biochemical Activity Assay (ADP-Glo); conditions: recombinant DGKα 1 nM, 100 μM ATP, 18:1 DAG/POPS/octylglucoside micelles, 1 hour at 25° C.; geometric mean; read-out: HTBS DGKa 1X ATP KM IC50;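 further: luminescent detection of ADP produced as DGKα phosphorylates DAG to phosphatidic acid, IC50 from four-parameter nonlinear curve fit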
[1] = test system: Jurkat NFκB-luciferase cells; assay: Jurkat NFκB-Luciferase Assay; format: cell-based; conditions: Homo sapiens
How it was run: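 Jurkat NFκB-luciferase reporter cells at 1 million cells/ml in RPMI with 10% FBS were added to antibody-coated, compound-containing wells. Luciferase activity read by One-Glo Ex luminescence 7 minutes after reagent addition.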

[2] = Jurkat NFκB-luciferase cells activated with anti-CD3 antibody (OKT3), 2.5 hrs at 37° C., geometric mean, read-out: DGK NFKb Luciferase EC50
[3] = Jurkat, […], read-out: DGK NFKb Luciferase EC50 (nM)

human DGKα, sequence (P23743 whole entry): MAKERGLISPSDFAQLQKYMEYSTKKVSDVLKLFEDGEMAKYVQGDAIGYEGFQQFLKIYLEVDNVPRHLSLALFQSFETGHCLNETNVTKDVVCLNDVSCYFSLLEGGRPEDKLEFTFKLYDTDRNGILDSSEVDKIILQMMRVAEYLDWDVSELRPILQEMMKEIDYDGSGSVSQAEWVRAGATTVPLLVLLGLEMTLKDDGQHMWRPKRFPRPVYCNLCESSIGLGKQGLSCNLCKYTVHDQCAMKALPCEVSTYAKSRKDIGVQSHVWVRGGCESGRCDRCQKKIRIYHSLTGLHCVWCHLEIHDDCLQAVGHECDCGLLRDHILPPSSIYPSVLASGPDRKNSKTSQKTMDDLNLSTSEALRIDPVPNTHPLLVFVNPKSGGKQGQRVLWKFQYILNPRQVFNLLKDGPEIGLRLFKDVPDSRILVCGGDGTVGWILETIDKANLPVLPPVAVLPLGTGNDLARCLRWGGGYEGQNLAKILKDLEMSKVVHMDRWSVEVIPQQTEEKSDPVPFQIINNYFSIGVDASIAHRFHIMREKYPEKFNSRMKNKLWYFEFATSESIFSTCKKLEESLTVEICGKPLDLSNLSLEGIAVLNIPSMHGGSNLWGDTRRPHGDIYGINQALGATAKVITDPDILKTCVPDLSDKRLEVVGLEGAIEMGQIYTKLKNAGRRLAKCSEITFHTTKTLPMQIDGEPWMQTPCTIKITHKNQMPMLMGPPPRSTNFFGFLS

Row | SMILES | IC50 (human DGKα) [nM] | EC50 [1, 2] [nM] | EC50 [1, 3] [nM]
1 | Cc1nnc2nc(N3CCCc4c(N5CCC(F)(F)CC5)cccc43)c3c(F)cccc3n12 [Example 157, 5-[5-(4,4-difluoro-1-piperidyl)-3,4-dihydro-2H-quinolin-1-yl]-6-fluoro-1-methyl-[1,2,4]triazolo[4,3-a]quinazoline] | 672 | 8.23 | –
2 | Cc1nnc2nc(N3CCCc4c(N5CCN(C(=O)C(F)F)CC5)cccc43)c3c(F)cccc3n12 [Example 158, 2,2-difluoro-1-[4-[1-(6-fluoro-1-methyl-[1,2,4]triazolo[4,3-a]quinazolin-5-yl)-3,4-dihydro-2H-quinolin-5-yl]piperazin-1-yl]ethanone] | 281 | 49.3 | –
3 | Cc1nnc2nc(N3CCCc4c(N5CCN(C(=O)C(F)(F)F)CC5)cccc43)c3c(F)cccc3n12 [Example 159] | 333 | 16.5 | –
4 | Cc1nnc2nc(N3CCCc4c(N5CCN(S(C)(=O)=O)CC5)cccc43)c3c(F)cccc3n12 [Example 160, 6-fluoro-1-methyl-5-[5-(4-methylsulfonylpiperazin-1-yl)-3,4-dihydro-2H-quinolin-1-yl]-[1,2,4]triazolo[4,3-a]quinazoline] | 74.9 | 28.6 | –
5 | Cc1nnc2nc(N3CCCc4c(N5CCN(C(=O)OC(C)(C)C)CC5)cccc43)c3c(F)cccc3n12 [Example 161, tert-butyl 4-[1-(6-fluoro-1-methyl-[1,2,4]triazolo[4,3-a]quinazolin-5-yl)-3,4-dihydro-2H-quinolin-5-yl]piperazine-1-carboxylate] | 87.1 | – | 5.49
6 | Cc1nnc2nc(N3CCN(C)Cc4c(C#CC(C)(C)C(F)(F)F)cccc43)c3c(F)cccc3n12 [Example 162, 6-fluoro-1-methyl-5-[4-methyl-6-(4,4,4-trifluoro-3,3-dimethyl-but-1-ynyl)-3,5-dihydro-2H-1,4-benzodiazepin-1-yl]-[1,2,4]triazolo[4,3-a]quinazoline] | 15 | 3.33 | –
7 | Cc1nnc2nc(N3CCN(C)Cc4c(C#CC5(C(C)(F)F)CC5)cccc43)c3c(F)cccc3n12 [Example 166, 5-[6-[2-[1-(1,1-difluoroethyl)cyclopropyl]ethynyl]-4-methyl-3,5-dihydro-2H-1,4-benzodiazepin-1-yl]-6-fluoro-1-methyl-[1,2,4]triazolo[4,3-a]quinazoline] | 17.4 | 15.8 | –
8 | Cc1nnc2nc(N3CCCOc4c(C#CC5CC5)cncc43)c3c(F)c(F)ccc3n12 [Example 167, 9-(2-cyclopropylethynyl)-5-(6,7-difluoro-1-methyl-[1,2,4]triazolo[4,3-a]quinazolin-5-yl)-3,4-dihydro-2H-pyrido[4,3-b][1,4]oxazepine] | 18 | 5.84 | –
9 | Cc1nnc2nc(N3CCN(C)Cc4c(C#CC(C)(C)O)cccc43)c3cc(F)ccc3n12 [Example 170, 4-[1-(7-fluoro-1-methyl-[1,2,4]triazolo[4,3-a]quinazolin-5-yl)-4-methyl-3,5-dihydro-2H-1,4-benzodiazepin-6-yl]-2-methyl-but-3-yn-2-ol] | 51 | – | 358
10 | Cc1nnc2nc(N3CCCOc4c(C#CC5(C)CC5)cncc43)c3cc(F)ccc3n12 [Example 173, 5-(7-fluoro-1-methyl-[1,2,4]triazolo[4,3-a]quinazolin-5-yl)-9-[2-(1-methylcyclopropyl)ethynyl]-3,4-dihydro-2H-pyrido[4,3-b][1,4]oxazepine] | 17.2 | 2.03 | –
11 | CC(C)(O)C#Cc1cccc2c1CCCN2c1nc2nncn2c2ccccc12 [Example 174, 2-methyl-4-[1-([1,2,4]triazolo[4,3-a]quinazolin-5-yl)-3,4-dihydro-2H-quinolin-5-yl]but-3-yn-2-ol] | 26.7 | – | 12
12 | FC(F)(F)C1(C#Cc2cccc3c2CCCN3c2nc3nncn3c3ccccc23)CC1 [Example 175, 5-[5-[2-[1-(trifluoromethyl)cyclopropyl]ethynyl]-3,4-dihydro-2H-quinolin-1-yl]-[1,2,4]triazolo[4,3-a]quinazoline] | 110 | 1.74 | –
13 | Cc1nnc2nc(N3CCOCc4c(C#CC(C)(C)NS(=O)(=O)C5(C(F)F)CC5)cccc43)c3c(F)cccc3n12 [Example 178, 1-(Difluoromethyl)-N-[3-[1-(6-fluoro-1-methyl-[1,2,4]triazolo[4,3-a]quinazolin-5-yl)-3,5-dihydro-2H-4,1-benzoxazepin-6-yl]-1,1-dimethyl-prop-2-ynyl]cyclopropanesulfonamide] | 44.9 | 10.2 | –
14 | Cc1nnc2nc(N3CCCCc4c(C#CC(C)(C)NC(=O)C5(C(F)(F)F)CC5)cccc43)c3c(F)cccc3n12 [Example 183, N-(4-(1-(6-fluoro-1-methyl-[1,2,4]triazolo[4,3-a]quinazolin-5-yl)-2,3,4,5-tetrahydro-1H-benzo[b]azepin-6-yl)-2-methylbut-3-yn-2-yl)-1-(trifluoromethyl)cyclopropane-1-carboxamide] | 28.4 | 11.8 | –

Continued, in another order:

Row | IC50 (human DGKα) [nM] | EC50 [1, 2] [nM] | SMILES | EC50 [1, 3] [nM]
15 | 13 | 3.63 | Cc1nnc2nc(N3CCN(C)Cc4c(C#CC5(C(F)(F)F)CC5)cccc43)c3c(F)cccc3n12 [Example 164, 6-fluoro-1-methyl-5-[4-methyl-6-[2-[1-(trifluoromethyl)cyclopropyl]ethynyl]-3,5-dihydro-2H-1,4-benzodiazepin-1-yl]-[1,2,4]triazolo[4,3-a]quinazoline] | –
16 | 7.6 | 5.35 | Cc1nnc2nc(N3CCN(C)Cc4c(C#CC5(C)CC5)cccc43)c3c(F)cccc3n12 [Example 165, 6-fluoro-1-methyl-5-[4-methyl-6-[2-(1-methylcyclopropyl)ethynyl]-3,5-dihydro-2H-1,4-benzodiazepin-1-yl]-[1,2,4]triazolo[4,3-a]quinazoline] | –
17 | 10.4 | 5.41 | Cc1nnc2nc(N3CCN(C)Cc4c(C#CC(C)(C)C(F)(F)F)cccc43)c3c(F)c(F)ccc3n12 [Example 168, 6,7-difluoro-1-methyl-5-[4-methyl-6-(4,4,4-trifluoro-3,3-dimethyl-but-1-ynyl)-3,5-dihydro-2H-1,4-benzodiazepin-1-yl]-[1,2,4]triazolo[4,3-a]quinazoline] | –
18 | 7.3 | 4.39 | Cc1nnc2nc(N3CCN(C)Cc4c(C#CC5(C(F)(F)F)CC5)cccc43)c3c(F)c(F)ccc3n12 [Example 169, 6,7-difluoro-1-methyl-5-[4-methyl-6-[2-[1-(trifluoromethyl)cyclopropyl]ethynyl]-3,5-dihydro-2H-1,4-benzodiazepin-1-yl]-[1,2,4]triazolo[4,3-a]quinazoline] | –
19 | 14.8 | 7.36 | Cc1nnc2nc(N3CCN(C)Cc4c(C#CC(C)(C)C(F)(F)F)cccc43)c3cc(F)ccc3n12 [Example 171, 7-fluoro-1-methyl-5-[4-methyl-6-(4,4,4-trifluoro-3,3-dimethyl-but-1-ynyl)-3,5-dihydro-2H-1,4-benzodiazepin-1-yl]-[1,2,4]triazolo[4,3-a]quinazoline] | –
20 | 8.77 | 3.23 | Cc1nnc2nc(N3CCN(C)Cc4c(C#CC5(C(F)(F)F)CC5)cccc43)c3cc(F)ccc3n12 [Example 172, 7-fluoro-1-methyl-5-[4-methyl-6-[2-[1-(trifluoromethyl)cyclopropyl]ethynyl]-3,5-dihydro-2H-1,4-benzodiazepin-1-yl]-[1,2,4]triazolo[4,3-a]quinazoline] | –
21 | 12.4 | 6.67 | Cc1nnc2nc(N3CCCCc4c(C#CC(C)(C)NC(=O)C5(C(F)(F)F)CC5)cccc43)c3c(F)c(F)ccc3n12 [Example 176] | –
22 | 6.74 | 23.4 | Cc1nnc2nc(N3CCCCc4c(C#CC5(NC(=O)C6(C(F)(F)F)CC6)CC5)cccc43)c3c(F)cccc3n12 [Example 177, N-(1-((1-(6-Fluoro-1-methyl-[1,2,4]triazolo[4,3-a]quinazolin-5-yl)-2,3,4,5-tetrahydro-1H-benzo[b]azepin-6-yl)ethynyl)cyclopropyl)-1-(trifluoromethyl)cyclopropane-1-carboxamide] | –
23 | 9.59 | 9.13 | Cc1nc(C#Cc2cccc3c2COCCN3c2nc3nnc(C)n3c3cccc(F)c23)co1 [Example 179, 1-(6-Fluoro-1-methyl-[1,2,4]triazolo[4,3-a]quinazolin-5-yl)-6-[2-(2-methyloxazol-4-yl)ethynyl]-3,5-dihydro-2H-4,1-benzoxazepine] | –
24 | 5.12 | 13.5 | Cc1nnc2nc(N3CCOCc4c(C#CC(C)(C)NC(=O)C(C)(C)C(C)(F)F)cccc43)c3c(F)cccc3n12 [Example 180, 3,3-Difluoro-N-[3-[1-(6-fluoro-1-methyl-[1,2,4]triazolo[4,3-a]quinazolin-5-yl)-3,5-dihydro-2H-4,1-benzoxazepin-6-yl]-1,1-dimethyl-prop-2-ynyl]-2,2-dimethyl-butanamide] | –
25 | 4.06 | 12.4 | Cc1nnc2nc(N3CCOCc4c(C#CC(C)(C)NC(=O)C5(C(C)(F)F)CC5)cccc43)c3c(F)cccc3n12 [Example 181, 1-(1,1-Difluoroethyl)-N-[3-[1-(6-fluoro-1-methyl-[1,2,4]triazolo[4,3-a]quinazolin-5-yl)-3,5-dihydro-2H-4,1-benzoxazepin-6-yl]-1,1-dimethyl-prop-2-ynyl]cyclopropanecarboxamide] | –
26 | 2.41 | 4.27 | Cc1nnc2nc(N3CCOCc4c(C#CC(C)(C)NC(=O)C5(C(F)(F)F)CC5)cccc43)c3c(F)c(F)ccc3n12 [Example 182, N-[3-[1-(6,7-Difluoro-1-methyl-[1,2,4]triazolo[4,3-a]quinazolin-5-yl)-3,5-dihydro-2H-4,1-benzoxazepin-6-yl]-1,1-dimethyl-prop-2-ynyl]-1-(trifluoromethyl)cyclopropanecarboxamide] | –
